Laboratory results taken from ChEMBL document CHEMBL1201862, “PubChem BioAssay data set” (2004).
The source made the active and inactive calls.

Key:
P388/ADR = assay: cells; type: functional; settings: Mus musculus
SN12K1 = assay: cells; type: functional; settings: Homo sapiens
P388 = assay: cells; type: functional; settings: Mus musculus
[1] = target: T1, DNA repair protein RAD52 homolog (Homo sapiens, UniProt P43351); type: functional, biochemical
T1 sequence (P43351 whole entry): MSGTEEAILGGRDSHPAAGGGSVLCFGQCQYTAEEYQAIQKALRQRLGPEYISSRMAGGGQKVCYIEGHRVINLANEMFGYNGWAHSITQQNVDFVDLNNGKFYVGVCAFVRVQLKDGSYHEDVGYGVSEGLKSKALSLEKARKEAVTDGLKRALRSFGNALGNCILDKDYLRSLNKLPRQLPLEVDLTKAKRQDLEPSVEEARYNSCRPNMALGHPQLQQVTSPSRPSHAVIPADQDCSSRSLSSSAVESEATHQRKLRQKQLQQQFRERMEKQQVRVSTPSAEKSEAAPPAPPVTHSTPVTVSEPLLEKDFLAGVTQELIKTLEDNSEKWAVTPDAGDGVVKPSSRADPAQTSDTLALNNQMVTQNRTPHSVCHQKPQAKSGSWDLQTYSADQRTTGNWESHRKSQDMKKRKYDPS

[2] = target: T2, Replicative DNA helicase DnaB (Mycobacterium tuberculosis, UniProt P9WMR3); assay: DnaB intein splicing inhibitors, dose response, biochemical, cell-free fluorescence (AID 449749); type: functional
T2 sequence (P9WMR3 whole entry): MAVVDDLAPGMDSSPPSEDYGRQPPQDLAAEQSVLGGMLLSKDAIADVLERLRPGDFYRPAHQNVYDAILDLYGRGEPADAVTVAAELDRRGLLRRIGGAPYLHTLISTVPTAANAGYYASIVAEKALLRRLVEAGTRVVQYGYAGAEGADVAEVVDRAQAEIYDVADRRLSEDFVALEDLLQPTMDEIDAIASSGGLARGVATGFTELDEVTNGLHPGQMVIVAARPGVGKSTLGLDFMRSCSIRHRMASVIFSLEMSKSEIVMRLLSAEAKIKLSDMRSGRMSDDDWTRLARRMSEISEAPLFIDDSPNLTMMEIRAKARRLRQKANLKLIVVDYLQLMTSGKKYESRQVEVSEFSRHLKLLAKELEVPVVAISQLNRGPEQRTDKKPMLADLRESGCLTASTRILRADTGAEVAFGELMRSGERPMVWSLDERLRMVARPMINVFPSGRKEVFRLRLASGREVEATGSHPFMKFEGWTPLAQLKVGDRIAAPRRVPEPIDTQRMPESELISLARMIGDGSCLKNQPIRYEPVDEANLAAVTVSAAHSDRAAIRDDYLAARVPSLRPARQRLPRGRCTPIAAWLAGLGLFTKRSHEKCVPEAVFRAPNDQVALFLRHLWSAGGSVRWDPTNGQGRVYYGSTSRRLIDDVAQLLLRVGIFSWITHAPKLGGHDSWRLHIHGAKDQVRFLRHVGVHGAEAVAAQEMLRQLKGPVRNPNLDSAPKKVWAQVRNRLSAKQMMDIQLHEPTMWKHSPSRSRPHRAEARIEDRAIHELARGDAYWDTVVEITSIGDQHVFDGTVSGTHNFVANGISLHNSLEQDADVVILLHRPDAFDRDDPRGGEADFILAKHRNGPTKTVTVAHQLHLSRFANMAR

Vero = Vero cell cytotoxicity, cytotoxicity control for flavivirus capping enzyme inhibitors (AID 588742); type: functional; settings: Chlorocebus sabaeus
Genome polyprotein = Genome polyprotein (dengue virus type 2, UniProt P29990); assay: Dengue-2 NS5 methyltransferase inhibitors, primary screen, biochemical, confirmation dose response (AID 588689); type: functional
Protein RecA = target: T3, Protein RecA (Mycobacterium tuberculosis, UniProt P9WHJ3); assay: Fluorescence Cell-Free Homogeneous Dose Retest to Identify Inhibitors of RecA-Intein Splicing Activity. [Related pubchem assays (depositor defined):AID2097, AID2223, AID489010, AID492950]; type: functional
T3 sequence (P9WHJ3 whole entry): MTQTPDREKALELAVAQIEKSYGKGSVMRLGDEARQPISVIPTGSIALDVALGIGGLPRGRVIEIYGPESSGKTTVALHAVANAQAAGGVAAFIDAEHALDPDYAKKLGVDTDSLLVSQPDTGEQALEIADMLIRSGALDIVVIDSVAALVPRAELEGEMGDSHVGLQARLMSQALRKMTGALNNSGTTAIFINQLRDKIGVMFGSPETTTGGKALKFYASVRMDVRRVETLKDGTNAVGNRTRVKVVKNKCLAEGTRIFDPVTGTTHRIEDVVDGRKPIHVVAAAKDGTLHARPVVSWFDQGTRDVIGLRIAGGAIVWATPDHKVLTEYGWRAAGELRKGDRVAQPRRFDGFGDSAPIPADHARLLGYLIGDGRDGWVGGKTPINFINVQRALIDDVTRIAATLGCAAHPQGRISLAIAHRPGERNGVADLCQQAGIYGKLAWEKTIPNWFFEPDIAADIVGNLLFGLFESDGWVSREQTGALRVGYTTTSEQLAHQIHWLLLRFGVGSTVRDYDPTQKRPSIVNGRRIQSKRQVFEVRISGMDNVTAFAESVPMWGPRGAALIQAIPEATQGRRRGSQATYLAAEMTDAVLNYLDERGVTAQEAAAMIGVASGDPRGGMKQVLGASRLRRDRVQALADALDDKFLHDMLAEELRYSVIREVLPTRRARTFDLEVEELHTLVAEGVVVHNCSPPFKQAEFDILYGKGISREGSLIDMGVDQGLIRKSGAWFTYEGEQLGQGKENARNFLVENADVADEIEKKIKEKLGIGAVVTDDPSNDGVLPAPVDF

[3] = HeLa cell cytotoxicity, dose response, cytotoxicity control for MgcRacGAP inhibitor project (AID 624300); type: functional
[4] = target: T4, Rac GTPase-activating protein 1 (Homo sapiens, UniProt Q9H0H5); assay: MgcRacGAP GTPase-activating activity inhibitors, confirmation, biochemical, ADP Hunter fluorescence, primary and confirmatory (AID 624330); type: functional
T4 sequence (Q9H0H5 whole entry): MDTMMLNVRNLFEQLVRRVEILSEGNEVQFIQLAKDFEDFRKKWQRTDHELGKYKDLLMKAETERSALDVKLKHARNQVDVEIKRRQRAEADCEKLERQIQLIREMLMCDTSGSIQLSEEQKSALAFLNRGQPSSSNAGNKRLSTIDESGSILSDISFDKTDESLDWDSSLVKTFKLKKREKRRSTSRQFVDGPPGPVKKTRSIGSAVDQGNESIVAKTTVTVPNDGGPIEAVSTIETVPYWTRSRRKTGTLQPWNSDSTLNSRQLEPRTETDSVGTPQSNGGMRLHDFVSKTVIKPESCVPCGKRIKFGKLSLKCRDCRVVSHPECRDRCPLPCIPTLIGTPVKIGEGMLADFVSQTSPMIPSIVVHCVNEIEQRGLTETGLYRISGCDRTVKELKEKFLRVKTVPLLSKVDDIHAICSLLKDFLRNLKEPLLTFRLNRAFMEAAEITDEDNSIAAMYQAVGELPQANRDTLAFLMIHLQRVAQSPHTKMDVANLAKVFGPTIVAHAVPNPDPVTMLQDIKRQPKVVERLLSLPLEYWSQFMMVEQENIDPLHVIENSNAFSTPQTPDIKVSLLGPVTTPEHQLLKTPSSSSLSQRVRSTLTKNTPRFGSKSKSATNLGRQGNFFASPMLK

BJ [5] = assay: cytotoxicity toward BJ-TERT fibroblasts, dose response, cell-based, RAS-independent, luminescence (AID 1933); type: functional; settings: Homo sapiens
BJ [6] = assay: cells; type: functional, cell-based; settings: Homo sapiens
[7] = cytotoxicity toward DRD oncogenic fibroblasts, dose response, cell-based, non-viral oncogenic, luminescence (AID 1934); type: functional; settings: Homo sapiens
BJ [8] = assay: cytotoxicity toward BJ-TERT-LT-ST fibroblasts, dose response, cell-based, RAS-independent, luminescence (AID 1935); type: functional; settings: Homo sapiens;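 further: BJ fibroblasts immortalized with TERT plus LT and ST oncogenes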
[9] = C. albicans growth with fluconazole, confirmation, fluorescence, retest (AID 2467); type: functional, cell-based
[10] = NIH-3T3 fibroblast cytotoxicity, dose response, cytotoxicity control, cell-based, fluorescence, Alamar Blue, secondary assay (AID 2327); type: functional;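 further: NIH-3T3 mouse fibroblasts cultured with fluconazole at 8 µg/mL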
[11] = target: T5, Heat shock factor protein 1 (Mus musculus, UniProt P38532); assay: HSF1 potentiators in luciferase reporter cells, confirmation, cell-based, NIH3T3, luminescence, dose retest (AID 435004); type: functional;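 further: stress induced by proteasome inhibitor MG132 added 30 min after compound; luciferase reporter driven by HSF1 response element in NIH3T3 cells; actives raise luminescence as potentiators of the MG132 stress response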
T5 sequence (P38532 whole entry): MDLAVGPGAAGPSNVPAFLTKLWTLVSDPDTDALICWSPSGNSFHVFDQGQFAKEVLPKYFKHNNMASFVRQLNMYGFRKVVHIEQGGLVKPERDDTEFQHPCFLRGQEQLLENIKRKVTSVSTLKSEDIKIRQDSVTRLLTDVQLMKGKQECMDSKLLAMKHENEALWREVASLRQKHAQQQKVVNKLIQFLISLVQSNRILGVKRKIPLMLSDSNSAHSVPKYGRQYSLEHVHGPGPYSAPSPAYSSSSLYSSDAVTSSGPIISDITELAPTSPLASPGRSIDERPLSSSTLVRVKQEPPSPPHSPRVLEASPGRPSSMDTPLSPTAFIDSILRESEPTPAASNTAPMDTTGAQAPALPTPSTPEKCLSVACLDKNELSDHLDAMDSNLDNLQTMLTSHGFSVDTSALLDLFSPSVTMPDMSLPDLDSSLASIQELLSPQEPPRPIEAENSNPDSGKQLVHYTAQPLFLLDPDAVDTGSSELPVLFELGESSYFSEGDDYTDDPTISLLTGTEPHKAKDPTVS

Chain of Genome polyprotein (P29990 2492-3391 limits assumed): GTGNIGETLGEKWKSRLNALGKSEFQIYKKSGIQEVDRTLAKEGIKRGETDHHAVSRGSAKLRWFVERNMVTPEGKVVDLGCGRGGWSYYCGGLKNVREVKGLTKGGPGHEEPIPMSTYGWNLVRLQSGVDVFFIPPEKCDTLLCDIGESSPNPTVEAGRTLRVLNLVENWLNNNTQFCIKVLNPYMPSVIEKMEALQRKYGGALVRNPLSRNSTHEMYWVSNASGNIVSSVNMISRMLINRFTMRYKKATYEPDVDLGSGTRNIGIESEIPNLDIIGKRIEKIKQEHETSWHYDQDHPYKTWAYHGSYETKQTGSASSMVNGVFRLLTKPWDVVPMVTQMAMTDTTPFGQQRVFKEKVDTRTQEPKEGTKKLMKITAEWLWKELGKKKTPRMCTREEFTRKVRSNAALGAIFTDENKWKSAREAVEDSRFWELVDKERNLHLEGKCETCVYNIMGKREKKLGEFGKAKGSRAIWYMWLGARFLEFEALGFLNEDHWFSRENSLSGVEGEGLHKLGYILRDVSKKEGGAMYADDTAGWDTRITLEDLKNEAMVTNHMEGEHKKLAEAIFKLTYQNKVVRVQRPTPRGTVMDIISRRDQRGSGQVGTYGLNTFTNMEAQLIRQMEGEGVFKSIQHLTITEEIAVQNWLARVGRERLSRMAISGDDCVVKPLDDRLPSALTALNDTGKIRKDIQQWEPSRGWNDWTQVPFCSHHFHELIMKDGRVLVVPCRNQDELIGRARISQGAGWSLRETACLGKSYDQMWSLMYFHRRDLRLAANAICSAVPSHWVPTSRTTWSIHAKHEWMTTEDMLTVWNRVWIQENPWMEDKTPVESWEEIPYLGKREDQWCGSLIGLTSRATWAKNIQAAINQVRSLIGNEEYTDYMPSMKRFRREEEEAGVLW

Compound	GI50 (P388/ADR)	GI50 (SN12K1)	GI50 (P388)	AC50 [1]	further results
CS(=O)(=O)CS(=O)(=O)OCCCl	27.7 µM (inactive)	152 µM (inactive)	17.9 µM (inactive)		
CCn1cc(C(=O)NN)c(=O)c2cc(F)c(N3CCN(C)CC3)cc21				15.7 µM (active)	
CN1CCN(CC(=O)Nc2nc(-c3c[nH]c4ccccc34)cs2)CC1				11.6 µM (active)	
COC(=O)c1c(NC(=O)/C=C/C(=O)O)sc(C)c1-c1ccc(C(C)C)cc1					AC50 [2]: 6.48 µM (active); CC50 (Vero): > 40 µM (active); IC50 (Genome polyprotein): 65 µM (active); EC50 (Protein RecA): 2.4 µM (active)
C[n+]1ccc(Nc2ccc(NC(=O)c3ccc(Nc4cc[n+](C)c5ccc([N+](=O)[O-])cc45)cc3[N+](=O)[O-])cc2)cc1		23.9 µM (inactive)	0.771 µM (active)		
CC(C)(C)c1ccc2c(c1)OP1(Oc3c(Cl)cc(Cl)c4cccnc34)(O2)Oc2ccc(C(C)(C)C)cc2O1	2.84 µM (inactive)	6.21 µM (inactive)	0.889 µM (active)		
C=C1C(=O)O[C@@H]2[C@H](O)[C@@H](C)[C@@H]3C=CC(=O)[C@@]3(C)[C@@H](OC(=O)/C(C)=C/C)[C@H]12	0.104 µM (active)	0.34 µM (active)	0.0933 µM (active)		
Oc1ccc(/C=N/n2c(-c3ccco3)cs/c2=N\c2cccnc2)c(O)c1					CC50 [3]: 100 µM (active); IC50 [4]: 43.3 µM (active)
O=C1CCCN1CCC/N=c1/cc2n(-c3ccc(Cl)cc3)c3ccccc3nc-2cc1Nc1ccc(Cl)cc1	3.53 µM (inactive)	9.66 µM (inactive)	3.45 µM (inactive)		
COc1ccc(N2CCc3c(C)nc4c(OC)cccc4c32)cc1				12.3 µM (active)	EC50 (BJ [5]): 3.48 µM (inconclusive); EC50 (BJ [6]): 20 µM (inconclusive); EC50 [7]: 2.68 µM (active); EC50 (BJ [8]): 1.26 µM (inconclusive)
CCCCn1c(SCC(=O)c2ccc(O)c(O)c2)nc2ccsc2c1=O					CC50 [3]: 100 µM (active); IC50 [4]: 49.7 µM (active); EC50 [9]: > 38 µM (not active); EC50 [10]: 12.9 µM (active); EC50 [11]: 31.7 µM (active)
O=C(C[n+]1ccc2ccccc2c1)c1ccc2ccc3ccccc3c2c1				4.04 µM (active)	
COc1cc2c(cc1O)N=C[C@@H]1CC[C@@H](O)N1C2=O.COc1cc2c(cc1O)N=C[C@@H]1CC[C@H](O)N1C2=O	0.173 µM (active)	0.53 µM (active)	0.582 µM (active)		
O=C(c1ccccc1F)N1CCN(Cc2ccccc2F)CC1					CC50 [3]: 100 µM (active); IC50 [4]: 182 µM (active)
CCOC(=O)c1c(CNc2ccncc2)n(C)c2cc(Br)c(O)cc12				15.6 µM (active)	
